Where two headings read alike, the source gives them in different places.
Legend:
Assay in all cases: Sensitivity test (agar dilution)
S. aureus 209P = assay type: cell-based, Staphylococcus aureus; conditions: for MIC: Staphylococcus aureus, 209P
Method in brief: (§1)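 FIC index is computed from MICs of each drug alone versus in combination (≤1 = enhancement, >1 = none). MICs are measured on Mueller Hinton agar plates carrying twofold dilution series and inoculated with about 10^6 CFU/ml bacterial suspension.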

[1] = test system: S. aureus MS94088 (hetero-MRSA); assay type: cell-based, Staphylococcus aureus; conditions: Staphylococcus aureus, MRSA
Method in brief: as §1

[2] = test system: S. aureus SP-7928 (homo-MRSA); assay type: cell-based, Staphylococcus aureus
Method in brief: as §1

P. aeruginosa TL-2667 = assay type: cell-based, Pseudomonas aeruginosa; conditions: Pseudomonas aeruginosa
Method in brief: as §1

[3] = Concomitant (IPM:SM = 1:1), read-out: MIC
[4] = Concomitant (MEPM:SM = 1:1), read-out: MIC
[5] = Concomitant (MEPM:SM = 1:2), read-out: MIC
[6] = Concomitant (MEPM:SM = 1:4), read-out: MIC
[7] = Concomitant drug (MEPM:SM = 2:1), read-out: MIC

SMILES: C[C@H]1C=C(c2csc(SC3=C(C(=O)O)N4C(=O)[C@H]([C@@H](C)O)[C@H]4[C@H]3C)n2)CN1 [SM, (4R,5S,6S)-6-[(1R)-1-Hydroxyethyl]-4-methyl-3-({4-[(5S)-5-methyl-2,5-dihydro-1H-pyrrol-3-yl]-1,3-thiazol-2-yl}sulfanyl)-7-oxo-1-azabicyclo[3.2.0]hept-2-ene-2-carboxylic acid]
- MIC (S. aureus 209P; [3]): 0.004 µg/mL
- MIC (S. aureus 209P; [4]): ≤ 0.016 µg/mL
- MIC (S. aureus 209P; [5]): ≤ 0.031 µg/mL
- MIC (S. aureus 209P; [6]): ≤ 0.063 µg/mL
- MIC (S. aureus 209P; Concomitant (PAPM:SM = 1:1), S. aureus 209P, read-out: MIC concomitant): 0.004 µg/mL
- MIC (S. aureus 209P; Concomitant (PIPC:SM = 1:1), S. aureus 209P, read-out: MIC concomitant): 0.004 µg/mL
- MIC (S. aureus 209P; [7]): ≤ 0.008 µg/mL
- MIC (S. aureus 209P; alone, read-out: MIC): ≤ 0.008 µg/mL
- MIC (S. aureus 209P; drug alone, S. aureus 209P, read-out: MIC alone): 0.008 µg/mL
- MIC alone (S. aureus 209P; drug alone, S. aureus 209P): 0.004 µg/mL
- MIC ([1]; Concomitant (AZT:SM = 1:1), S. aureus MS94088 (hetero-MRSA), read-out: MIC concomitant): 0.25 µg/mL
- MIC ([1]; Concomitant (BIPM:SM = 1:1), S. aureus MS94088 (hetero-MRSA), read-out: MIC concomitant): 0.25 µg/mL
- MIC ([1]; Concomitant (CAZ:SM = 1:1), S. aureus MS94088 (hetero-MRSA), read-out: MIC concomitant): 0.25 µg/mL
- MIC ([1]; Concomitant (CPFX:SM = 1:1), S. aureus MS94088 (hetero-MRSA), read-out: MIC concomitant): 0.125 µg/mL
- MIC ([1]; Concomitant (DRPM:SM = 1:1), S. aureus MS94088 (hetero-MRSA), read-out: MIC concomitant): 0.25 µg/mL
- MIC [1, 3]: 0.25 µg/mL
- MIC [1, 4]: 0.25 µg/mL
- MIC [1, 5]: 0.25 µg/mL
- MIC [1, 6]: 0.25 µg/mL
- MIC ([1]; Concomitant (PAPM:SM = 1:1), S. aureus MS94088 (hetero-MRSA), read-out: MIC concomitant): 0.25 µg/mL
- MIC ([1]; Concomitant (PIPC:SM = 1:1), S. aureus MS94088 (hetero-MRSA), read-out: MIC concomitant): 0.125 µg/mL
- MIC [1, 7]: 0.25 µg/mL
- MIC ([1]; alone, read-out: MIC): 0.25 µg/mL
- MIC ([1]; drug alone, S. aureus MS94088 (hetero-MRSA), read-out: MIC alone): 0.25 µg/mL
- MIC ([2]; Staphylococcus aureus, MRSA, Concomitant (AZT:SM = 1:1), S. aureus SP-7928 (homo-MRSA), read-out: MIC concomitant): 2 µg/mL
- MIC ([2]; Staphylococcus aureus, MRSA, Concomitant (BIPM:SM = 1:1), S. aureus SP-7928 (homo-MRSA), read-out: MIC concomitant): 2 µg/mL
- MIC ([2]; Staphylococcus aureus, MRSA, Concomitant (CAZ:SM = 1:1), S. aureus SP-7928 (homo-MRSA), read-out: MIC concomitant): 1 µg/mL
- MIC ([2]; Staphylococcus aureus, MRSA, Concomitant (CPFX:SM = 1:1), S. aureus SP-7928 (homo-MRSA), read-out: MIC concomitant): 0.25 µg/mL
- MIC ([2]; Staphylococcus aureus, MRSA, Concomitant (DRPM:SM = 1:1), S. aureus SP-7928 (homo-MRSA), read-out: MIC concomitant): 1 µg/mL
- MIC ([2]; Staphylococcus aureus, MRSA, Concomitant (IPM:SM = 1:1), read-out: MIC): 2 µg/mL
- MIC ([2]; Staphylococcus aureus, MRSA, Concomitant (MEPM:SM = 1:1), read-out: MIC): 1 µg/mL
- MIC ([2]; Staphylococcus aureus, MRSA, Concomitant (MEPM:SM = 1:2), read-out: MIC): 2 µg/mL
- MIC ([2]; Staphylococcus aureus, MRSA, Concomitant (MEPM:SM = 1:4), read-out: MIC): 2 µg/mL
- MIC ([2]; Staphylococcus aureus, MRSA, Concomitant (PAPM:SM = 1:1), S. aureus SP-7928 (homo-MRSA), read-out: MIC concomitant): 2 µg/mL
- MIC ([2]; Staphylococcus aureus, MRSA, Concomitant (PIPC:SM = 1:1), S. aureus SP-7928 (homo-MRSA), read-out: MIC concomitant): 1 µg/mL
- MIC ([2]; Staphylococcus aureus, MRSA, Concomitant drug (MEPM:SM = 2:1), read-out: MIC): 1 µg/mL
- MIC ([2]; Staphylococcus aureus, MRSA, alone, read-out: MIC): 1 µg/mL
- MIC ([2]; Staphylococcus aureus, MRSA, drug alone, S. aureus SP-7928 (homo-MRSA), read-out: MIC alone): 2 µg/mL
- MIC ([2]; alone): 2 µg/mL
- MIC alone ([2]; drug alone, S. aureus SP-7928 (homo-MRSA)): 1 µg/mL
- MIC (P. aeruginosa TL-2667; TL2667, Concomitant (AZT:SM = 1:1), P. aeruginosa TL-2667, read-out: MIC concomitant): 8 µg/mL
- MIC (P. aeruginosa TL-2667; TL2667, Concomitant (BIPM:SM = 1:1), P. aeruginosa TL-2667, read-out: MIC concomitant): 4 µg/mL
- MIC (P. aeruginosa TL-2667; TL2667, Concomitant (CAZ:SM = 1:1), P. aeruginosa TL-2667, read-out: MIC concomitant): 8 µg/mL
- MIC (P. aeruginosa TL-2667; TL2667, Concomitant (CPFX:SM = 1:1), P. aeruginosa TL-2667, read-out: MIC concomitant): 2 µg/mL
- MIC (P. aeruginosa TL-2667; TL2667, Concomitant (DRPM:SM = 1:1), P. aeruginosa TL-2667, read-out: MIC concomitant): 2 µg/mL
- MIC (P. aeruginosa TL-2667; TL2667, Concomitant (IPM:SM = 1:1), read-out: MIC): 8 µg/mL

From patent publication US20090018111A1, “Novel Antimicrobial Medicament” (priority 2004, published 2009)
